Source: patent publication US11667649B2, “Heteroaromatic macrocyclic ether chemotherapeutic agents” (Nuvalent, Inc., priority 2020, dated 2023)

Tested on: TPM3-NTRK1-wt IC50 / primary target (e.g. CD74-ROS1-wt) IC50, Ba/F3 cells
Test: Cell assay TRKA selectivity (TRKA potency divided by primary target potency)
Format: cell-based
Details: for TPM3-NTRK1-wt/CD74-ROS1-G2032R: TRKA selectivity ratio: TPM3-NTRK1-wt IC50 / CD74-ROS1-G2032R IC50, Ba/F3 cells; for TPM3-NTRK1-wt/CD74-ROS1-wt: TRKA selectivity ratio: TPM3-NTRK1-wt IC50 / CD74-ROS1-wt IC50, Ba/F3 cells; for TPM3-NTRK1-wt/EML4-ALK-L1196M-G1202R: TRKA selectivity ratio: TPM3-NTRK1-wt IC50 / EML4-ALK-L1196M-G1202R IC50, Ba/F3 cells; for TPM3-NTRK1-wt/EML4-ALK-wt: TRKA selectivity ratio: TPM3-NTRK1-wt IC50 / EML4-ALK-wt IC50, Ba/F3 cells
How it was run: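 Ratio of TRKA to primary-target cellular IC50 (e.g. TPM3-NTRK1-wt/CD74-ROS1-wt), grouped into bins A >30, B >10, C ≥1, D <1. Each IC50 came from engineered Ba/F3 fusion lines grown without IL-3, dosed for 72 h and read as CellTiter-Glo luminescence, with a four-parameter logistic fit.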

SMILES | TPM3-NTRK1-wt/CD74-ROS1-G2032R | TPM3-NTRK1-wt/CD74-ROS1-wt | TPM3-NTRK1-wt/EML4-ALK-L1196M-G1202R | TPM3-NTRK1-wt/EML4-ALK-wt
CCn1ncc2c1-c1cnc(N)c(c1)O[C@H](C)c1cc(F)ccc1-c1onc(C)c1C2 [Example 161, (19R)-3-ethyl-16-fluoro-9,19-dimethyl-11,20-dioxa-3,4,10,23-tetraazapentacyclo[19.3.1.0^2,^6.0^8,^12.0^13,^18]pentacosa-1(24),2(6),4,8(12),9,13,15,17,21(25),22-decaen-22-amine] | C (bin C for moderate selectivity, ratio≥1) | C (bin C for moderate selectivity, ratio≥1) | D (bin D for low selectivity, ratio<1) | C (bin C for moderate selectivity, ratio≥1)
CCc1nn(C)c2c1-c1cnc(N)c(c1)O[C@H](C)c1cc(F)ccc1-c1nn(C)cc1C2 [Example 171, (19R)-3-ethyl-16-fluoro-5,10,19-trimethyl-20-oxa-4,5,10,11,23-pentaazapentacyclo[19.3.1.0^2,^6.0^8,^12.0^13,^18]pentacosa-1(24),2(6),3,8,11,13,15,17,21(25),22-decaen-22-amine] | A (bin A for very high selectivity, ratio>30-fold) | A (bin A for very high selectivity, ratio>30-fold) | B (bin B for high selectivity, ratio>10-fold) | A (bin A for very high selectivity, ratio>30-fold)
CCc1noc2c1-c1cnc(N)c(c1)O[C@H](C)c1cc(F)ccc1-c1nncn1C2 [Example 120, (19R)-3-ethyl-16-fluoro-19-methyl-5,20-dioxa-4,8,10,11,23-pentaazapentacyclo[19.3.1.0^2,^6.0^8,^12.0^13,^18]pentacosa-1(24),2(6),3,9,11,13,15,17,21(25),22-decaen-22-amine] | C (bin C for moderate selectivity, ratio≥1) | A (bin A for very high selectivity, ratio>30-fold) | D (bin D for low selectivity, ratio<1) | C (bin C for moderate selectivity, ratio≥1)
C[C@H]1Oc2cc(cnc2N)-c2c(cnn2CC(F)F)Cc2cn(C)nc2-c2ccc(F)cc21 [Example 22, (19R)-3-(2,2-difluoroethyl)-16-fluoro-10,19-dimethyl-20-oxa-3,4,10,11,23-pentaazapentacyclo[19.3.1.0^2,^6.0^8,^12.0^13,^18]pentacosa-1(24),2(6),4,8,11,13,15,17,21(25),22-decaen-22-amine] | A (bin A for very high selectivity, ratio>30-fold) | A (bin A for very high selectivity, ratio>30-fold) | A (bin A for very high selectivity, ratio>30-fold) | A (bin A for very high selectivity, ratio>30-fold)
CCn1ncc2c1-c1cnc(N)c(c1)OCc1cc(F)ccc1-n1nc(C(F)(F)F)cc1C2 [Example 92, 3-ethyl-16-fluoro-10-(trifluoromethyl)-20-oxa-3,4,11,12,23-pentaazapentacyclo[19.3.1.0^2,^6.0^8,^12.0^13,^18]pentacosa-1(24),2(6),4,8,10,13,15,17,21(25),22-decaen-22-amine] | A (bin A for very high selectivity, ratio>30-fold) | A (bin A for very high selectivity, ratio>30-fold) | C (bin C for moderate selectivity, ratio≥1) | C (bin C for moderate selectivity, ratio≥1)
CCn1ncc2c1-c1cnc(N)c(c1)O[C@H](C)c1cc(F)ccc1-c1nccc(OC)c1C2 [Example 151, (20R)-3-ethyl-17-fluoro-9-methoxy-20-methyl-21-oxa-3,4,12,24-tetraazapentacyclo[20.3.1.0^2,^6.0^8,^13.0^14,^19]hexacosa-1(25),2(6),4,8(13),9,11,14,16,18,22(26),23-undecaen-23-amine] | A (bin A for very high selectivity, ratio>30-fold) | A (bin A for very high selectivity, ratio>30-fold) | C (bin C for moderate selectivity, ratio≥1) | A (bin A for very high selectivity, ratio>30-fold)
CCc1nn(C)c2c1-c1cnc(N)c(c1)OCc1cc(F)ccc1-c1nn(C)cc1C2 [Example 176, 3-ethyl-16-fluoro-5,10-dimethyl-20-oxa-4,5,10,11,23-pentaazapentacyclo[19.3.1.0^2,^6.0^8,^12.0^13,^18]pentacosa-1(24),2(6),3,8,11,13,15,17,21(25),22-decaen-22-amine] | A (bin A for very high selectivity, ratio>30-fold) | A (bin A for very high selectivity, ratio>30-fold) | B (bin B for high selectivity, ratio>10-fold) | A (bin A for very high selectivity, ratio>30-fold)
C[C@H]1Oc2cc(cnc2N)-c2c(C#N)ncn2Cc2cc(F)cnc2-c2ccc(F)cc21 [Example 63, (20R)-23-amino-10,17-difluoro-20-methyl-21-oxa-4,6,12,24-tetraazapentacyclo[20.3.1.0^2,^6.0^8,^13.0^14,^19]hexacosa-1(25),2,4,8,10,12,14(19),15,17,22(26),23-undecaene-3-carbonitrile] | A (bin A for very high selectivity, ratio>30-fold) | A (bin A for very high selectivity, ratio>30-fold) | B (bin B for high selectivity, ratio>10-fold) | A (bin A for very high selectivity, ratio>30-fold)
CCn1nnc2c1-c1cnc(N)c(c1)O[C@H](C)c1cc(F)ccc1-c1nn(C)cc1C2 [Example 20, (19R)-3-ethyl-16-fluoro-10,19-dimethyl-20-oxa-3,4,5,10,11,23-hexaazapentacyclo[19.3.1.0^2,^6.0^8,^12.0^13,^18]pentacosa-1(24),2(6),4,8,11,13,15,17,21(25),22-decaen-22-amine] | A (bin A for very high selectivity, ratio>30-fold) | A (bin A for very high selectivity, ratio>30-fold) | B (bin B for high selectivity, ratio>10-fold) | A (bin A for very high selectivity, ratio>30-fold)
Cn1nc(C#N)c2c1Cc1cc(Cl)nn1-c1ccc(F)cc1COc1cc-2cnc1N [Example 113, 22-amino-10-chloro-16-fluoro-5-methyl-20-oxa-4,5,11,12,23-pentaazapentacyclo[19.3.1.0^2,^6.0^8,^12.0^13,^18]pentacosa-1(24),2(6),3,8,10,13,15,17,21(25),22-decaene-3-carbonitrile] | A (bin A for very high selectivity, ratio>30-fold) | A (bin A for very high selectivity, ratio>30-fold) | C (bin C for moderate selectivity, ratio≥1) | A (bin A for very high selectivity, ratio>30-fold)
C[C@H]1Oc2cc(cnc2N)-c2c(nnn2CC2CC2)Cc2cn(C)nc2-c2ccc(F)cc21 [Example 29, (19R)-3-(cyclopropylmethyl)-16-fluoro-10,19-dimethyl-20-oxa-3,4,5,10,11,23-hexaazapentacyclo[19.3.1.0^2,^6.0^8,^12.0^13,^18]pentacosa-1(24),2(6),4,8,11,13,15,17,21(25),22-decaen-22-amine] | A (bin A for very high selectivity, ratio>30-fold) | A (bin A for very high selectivity, ratio>30-fold) | A (bin A for very high selectivity, ratio>30-fold) | A (bin A for very high selectivity, ratio>30-fold)
C[C@H]1Oc2cc(cnc2N)-c2c(C#N)ncn2Cc2cccnc2-c2ccc(F)cc21 [Example 12, (20R)-23-amino-17-fluoro-20-methyl-21-oxa-4,6,12,24-tetraazapentacyclo[20.3.1.0^2,^6.0^8,^13.0^14,^19]hexacosa-1(25),2,4,8(13),9,11,14,16,18,22(26),23-undecaene-3-carbonitrile] | A (bin A for very high selectivity, ratio>30-fold) | A (bin A for very high selectivity, ratio>30-fold) | A (bin A for very high selectivity, ratio>30-fold) | A (bin A for very high selectivity, ratio>30-fold)
CCc1noc2c1-c1cnc(N)c(n1)O[C@H](C)c1cc(F)ccc1-c1nn(C)cc1C2 [Example 162, (19R)-3-ethyl-16-fluoro-10,19-dimethyl-5,20-dioxa-4,10,11,23,25-pentaazapentacyclo[19.3.1.0^2,^6.0^8,^12.0^13,^18]pentacosa-1(24),2(6),3,8,11,13,15,17,21(25),22-decaen-22-amine] | B (bin B for high selectivity, ratio>10-fold) | A (bin A for very high selectivity, ratio>30-fold) | C (bin C for moderate selectivity, ratio≥1) | A (bin A for very high selectivity, ratio>30-fold)
CCn1nnc2c1-c1cnc(N)c(c1)O[C@H](C)c1cc(F)ccc1-c1nscc1C2 [Example 95, (19R)-3-ethyl-16-fluoro-19-methyl-20-oxa-10-thia-3,4,5,11,23-pentaazapentacyclo[19.3.1.0^2,^6.0^8,^12.0^13,^18]pentacosa-1(24),2(6),4,8,11,13,15,17,21(25),22-decaen-22-amine] | A (bin A for very high selectivity, ratio>30-fold) | A (bin A for very high selectivity, ratio>30-fold) | C (bin C for moderate selectivity, ratio≥1) | A (bin A for very high selectivity, ratio>30-fold)
